# From publication doi:10.1101/2024.08.19.608619, “Discovery of potent SARS-CoV-2 nsp3 macrodomain inhibitors uncovers lack of translation to cellular antiviral response” (bioRxiv, 2024)
# Read-outs that look alike come from different tables or passages of the source.
# Key:
# SARS-CoV-2 nsp3-mac1 [1] = target: T1, SARS-CoV-2 nsp3-mac1 (Severe acute respiratory syndrome coronavirus 2, UniProt P0DTD1); assay: biochemical; parameters: SARS-CoV-2 nsp3 macrodomain TR-FRET single point, per cent inhibition, n=2
# SARS-CoV-2 nsp3-mac1 [2] = target: T1, SARS-CoV-2 nsp3-mac1; assay: biochemical; format: biochemical; details: SARS-CoV-2 nsp3 macrodomain TR-FRET single point
# [3] = read-out: perc_inhibition_mean, batch_name=ASAP-0000199-002
# [4] = read-out: perc_inhibition_mean, batch_name=ASAP-0000411-001
# [5] = read-out: perc_inhibition_mean, batch_name=ASAP-0000416-001
# [6] = read-out: perc_inhibition_mean, batch_name=ASAP-0000286-001
# [7] = read-out: perc_inhibition_mean, batch_name=ASAP-0000386-001
# [8] = read-out: perc_inhibition_mean, batch_name=ASAP-0000472-001
# [9] = read-out: perc_inhibition_mean, batch_name=ASAP-0000351-001
# [10] = read-out: perc_inhibition_mean, batch_name=ASAP-0000313-001
# [11] = read-out: perc_inhibition_mean, batch_name=ASAP-0000451-001
# [12] = read-out: perc_inhibition_mean, batch_name=ASAP-0000287-001
# [13] = read-out: perc_inhibition_mean, batch_name=ASAP-0000281-001
# [14] = read-out: perc_inhibition_mean, batch_name=ASAP-0000300-001
compound,measurement,setting,value
Cc1nn(C)c(NCc2nc(CO)cs2)c1C#N [ASAP-0000113],inhibition at 50 µM,"SARS-CoV-2 nsp3-mac1 [1]; read-out: perc_inhibition_mean, batch_name=ASAP-0000113-001",2.1%
same,perc_inhibition_mean,SARS-CoV-2 nsp3-mac1 [2]; concentration 50.0 uM,2.1%
c1nc(-c2nc(-c3cc(C4CC4)[nH]n3)no2)c2cc[nH]c2n1 [ASAP-0000199],inhibition at 50 µM,"SARS-CoV-2 nsp3-mac1 [1]; read-out: perc_inhibition_mean, batch_name=ASAP-0000199-001",-2.81%
same,inhibition at 50 µM,SARS-CoV-2 nsp3-mac1 [1]; [3],-4.8%
same,inhibition at 100 µM,SARS-CoV-2 nsp3-mac1 [1]; [3],-2.45%
same,perc_inhibition_mean,SARS-CoV-2 nsp3-mac1 [2]; concentration 50.0 uM,-2.809%
same,perc_inhibition_mean,"SARS-CoV-2 nsp3-mac1 [2]; concentration 50.0 uM, n=2",-4.799%
same,perc_inhibition_mean,"SARS-CoV-2 nsp3-mac1 [2]; concentration 100.0 uM, n=2",-2.454%
O=C(c1ccccc1)N1CCC(c2ccn3ncc(C(=O)N4CCc5cccnc54)c3c2)CC1 [ASAP-0000411],inhibition at 49.75 µM,SARS-CoV-2 nsp3-mac1 [1]; [4],-4.67%
same,inhibition at 99.5 µM,SARS-CoV-2 nsp3-mac1 [1]; [4],-8.02%
same,perc_inhibition_mean,SARS-CoV-2 nsp3-mac1 [2]; concentration 49.75 uM,-4.67%
same,perc_inhibition_mean,SARS-CoV-2 nsp3-mac1 [2]; concentration 99.5 uM,-8.02%
Cc1ccc(C(=O)N(CCC(=O)N2CCNCC2)Cc2cccc(Cl)c2)[nH]1 [ASAP-0000416],inhibition at 49.75 µM,SARS-CoV-2 nsp3-mac1 [1]; [5],-5.9%
same,inhibition at 99.5 µM,SARS-CoV-2 nsp3-mac1 [1]; [5],-3.94%
same,perc_inhibition_mean,SARS-CoV-2 nsp3-mac1 [2]; concentration 49.75 uM,-5.904%
same,perc_inhibition_mean,SARS-CoV-2 nsp3-mac1 [2]; concentration 99.5 uM,-3.936%
CCn1cnc(Nc2ncnc3c2ncn3Cc2cc(OC)no2)c1 [ASAP-0000286],inhibition at 49.75 µM,SARS-CoV-2 nsp3-mac1 [1]; [6],-16.7%
same,inhibition at 99.5 µM,SARS-CoV-2 nsp3-mac1 [1]; [6],-12.8%
same,perc_inhibition_mean,"SARS-CoV-2 nsp3-mac1 [2]; concentration 49.75 uM, n=2",-16.725%
same,perc_inhibition_mean,"SARS-CoV-2 nsp3-mac1 [2]; concentration 99.5 uM, n=2",-12.789%
NC(=O)c1ncccc1C(=O)N1CCC(c2ccn3ncc(C(=O)N4CCCCC4)c3c2)CC1 [ASAP-0000386],inhibition at 49.75 µM,SARS-CoV-2 nsp3-mac1 [1]; [7],20%
same,inhibition at 99.5 µM,SARS-CoV-2 nsp3-mac1 [1]; [7],36%
same,perc_inhibition_mean,SARS-CoV-2 nsp3-mac1 [2]; concentration 49.75 uM,19.978%
same,perc_inhibition_mean,SARS-CoV-2 nsp3-mac1 [2]; concentration 99.5 uM,36.045%
c1nc(N[C@@H]2CCCc3c2cnn3C2CCCC2)c2cc[nH]c2n1 [ASAP-0000472],inhibition at 49.75 µM,SARS-CoV-2 nsp3-mac1 [1]; [8],0.884%
same,inhibition at 99.5 µM,SARS-CoV-2 nsp3-mac1 [1]; [8],14.3%
same,perc_inhibition_mean,SARS-CoV-2 nsp3-mac1 [2]; concentration 49.75 uM,0.884%
same,perc_inhibition_mean,SARS-CoV-2 nsp3-mac1 [2]; concentration 99.5 uM,14.273%
Cc1cnc(C(=O)N(CCC(=O)N2CCNCC2)Cc2cccc(Cl)c2)nc1 [ASAP-0000351],inhibition at 49.75 µM,SARS-CoV-2 nsp3-mac1 [1]; [9],-1.49%
same,inhibition at 99.5 µM,SARS-CoV-2 nsp3-mac1 [1]; [9],6.47%
same,perc_inhibition_mean,"SARS-CoV-2 nsp3-mac1 [2]; concentration 49.75 uM, n=2",-1.487%
same,perc_inhibition_mean,"SARS-CoV-2 nsp3-mac1 [2]; concentration 99.5 uM, n=2",6.47%
O=C(Nc1ccccc1)Nc1ccc(C(=O)Nc2ncccc2F)cc1 [ASAP-0000313],inhibition at 49.75 µM,SARS-CoV-2 nsp3-mac1 [1]; [10],4.59%
same,inhibition at 99.5 µM,SARS-CoV-2 nsp3-mac1 [1]; [10],10.2%
same,perc_inhibition_mean,"SARS-CoV-2 nsp3-mac1 [2]; concentration 49.75 uM, n=2",4.588%
same,perc_inhibition_mean,"SARS-CoV-2 nsp3-mac1 [2]; concentration 99.5 uM, n=2",10.201%
O=C(O)c1ccc(C(=O)N2CCC(c3ccn4ncc(C(=O)N5CCCCC5)c4c3)CC2)o1 [ASAP-0000451],inhibition at 49.75 µM,SARS-CoV-2 nsp3-mac1 [1]; [11],40.5%
same,inhibition at 99.5 µM,SARS-CoV-2 nsp3-mac1 [1]; [11],58.1%
same,perc_inhibition_mean,SARS-CoV-2 nsp3-mac1 [2]; concentration 49.75 uM,40.495%
same,perc_inhibition_mean,SARS-CoV-2 nsp3-mac1 [2]; concentration 99.5 uM,58.121%
Cc1nc(C)c(CC(=O)Nc2cnc3[nH]ncc3c2)c(=O)[nH]1 [ASAP-0000041],inhibition at 50 µM,"SARS-CoV-2 nsp3-mac1 [1]; read-out: perc_inhibition_mean, batch_name=ASAP-0000041-001",4.83%
same,perc_inhibition_mean,SARS-CoV-2 nsp3-mac1 [2]; concentration 50.0 uM,4.825%
O=C(Nc1ccccc1)Nc1ccc(C(=O)N2CCc3ccncc32)cc1 [ASAP-0000287],inhibition at 49.75 µM,SARS-CoV-2 nsp3-mac1 [1]; [12],-4.3%
same,inhibition at 99.5 µM,SARS-CoV-2 nsp3-mac1 [1]; [12],0.234%
same,perc_inhibition_mean,"SARS-CoV-2 nsp3-mac1 [2]; concentration 49.75 uM, n=2",-4.305%
same,perc_inhibition_mean,"SARS-CoV-2 nsp3-mac1 [2]; concentration 99.5 uM, n=2",0.234%
Cc1c(-c2cnc3nc[nH]c(=O)c3c2)ccc2[nH]ncc12 [ASAP-0000281],inhibition at 49.75 µM,SARS-CoV-2 nsp3-mac1 [1]; [13],-3.12%
same,inhibition at 99.5 µM,SARS-CoV-2 nsp3-mac1 [1]; [13],-4.36%
same,perc_inhibition_mean,"SARS-CoV-2 nsp3-mac1 [2]; concentration 49.75 uM, n=2",-3.121%
same,perc_inhibition_mean,"SARS-CoV-2 nsp3-mac1 [2]; concentration 99.5 uM, n=2",-4.364%
O=C(CCCc1cccnc1)Nc1cnc2[nH]ncc2c1 [ASAP-0000114],inhibition at 50 µM,"SARS-CoV-2 nsp3-mac1 [1]; read-out: perc_inhibition_mean, batch_name=ASAP-0000114-001",-3.65%
same,perc_inhibition_mean,SARS-CoV-2 nsp3-mac1 [2]; concentration 50.0 uM,-3.651%
O=C(NCc1nc(-c2ccco2)n[nH]1)c1cc(=O)n2ncnc2[nH]1 [ASAP-0000128],inhibition at 50 µM,"SARS-CoV-2 nsp3-mac1 [1]; read-out: perc_inhibition_mean, batch_name=ASAP-0000128-001",-2.6%
same,perc_inhibition_mean,SARS-CoV-2 nsp3-mac1 [2]; concentration 50.0 uM,-2.599%
Cn1c(C(=O)NCCNC(=O)c2ccco2)cc2c(=O)n3ccccc3nc21 [ASAP-0000126],inhibition at 50 µM,"SARS-CoV-2 nsp3-mac1 [1]; read-out: perc_inhibition_mean, batch_name=ASAP-0000126-001",-4.47%
same,perc_inhibition_mean,SARS-CoV-2 nsp3-mac1 [2]; concentration 50.0 uM,-4.472%
CC(=O)Nc1ccc(S(=O)(=O)NNc2ncnc3sccc23)cc1 [ASAP-0000109],inhibition at 50 µM,"SARS-CoV-2 nsp3-mac1 [1]; read-out: perc_inhibition_mean, batch_name=ASAP-0000109-001",5.36%
same,perc_inhibition_mean,SARS-CoV-2 nsp3-mac1 [2]; concentration 50.0 uM,5.363%
O=C1CC[C@H](COC(=O)c2ncnc3[nH]ccc23)CCN1 [ASAP-0000091],inhibition at 50 µM,"SARS-CoV-2 nsp3-mac1 [1]; read-out: perc_inhibition_mean, batch_name=ASAP-0000091-001",-7.87%
same,perc_inhibition_mean,SARS-CoV-2 nsp3-mac1 [2]; concentration 50.0 uM,-7.865%
Cc1n[nH]cc1CN(C)C(=O)c1ccc(NC(=O)Nc2ccccc2)cc1 [ASAP-0000300],inhibition at 49.75 µM,SARS-CoV-2 nsp3-mac1 [1]; [14],-3.77%
same,inhibition at 99.5 µM,SARS-CoV-2 nsp3-mac1 [1]; [14],-0.031%
same,perc_inhibition_mean,"SARS-CoV-2 nsp3-mac1 [2]; concentration 49.75 uM, n=2",-3.77%
same,perc_inhibition_mean,"SARS-CoV-2 nsp3-mac1 [2]; concentration 99.5 uM, n=2",-0.031%
